Series [1] is described as follows: MTT cytotoxicity test of mannose-modified reactants. The protocol:
The cytotoxicity test, MTT assay, was performed to define the concentration using TPCPD-M (57, 1 mM) and BCN-M (61, 1 mM) (FIG. 4).

The test system of series [2] is TNF-α. The series is described as follows: LPS-induced accumulation of TNF-α in RAW 264.7 culture supernatant (ELISA), two-component system. The series is classed as cell-based, mouse. The protocol: RAW264.7 cell were seeded in 6-well plates and incubated overnight. Cells were then stimulated with LPS (10 mg/mL) for 1 h. TPCPD (1) and BCN (6a) (different concentrations) were added to well after 1 hr LPS treatment (same for all wells). As a control, the product (31) was used at same concentration as the anti-inflammation test to confirm that the suppression of TNF-α is result of CO instead of the reagent (or product) themselves (compounds 1, 6a, and 31). TNF-α secretion in the medium was measured with an eBioscience kit (mouse TNF-α ELISA kit, eBioscience, San Diego, Calif., USA).
TNF-α is a major pro-inflammatory cytokine, mainly secreted from macrophages and dendritic cells. Its production is induced in vitro by stimulation with LPS. The accumulation of TNF-α was assessed by ELISA in the culture supernatant of the macrophage cell line, RAW 264.7 (FIG. 5). The cells were stimulated for 1 h and then co-treated by […] for 24 h. […] A 50% decrease of the LPS-induced accumulation of TNF-α was observed after co-treatment with TPCPD-M and BCN-M at the respective concentration of 1 mM+1 mM.
(In general: An ELISA detects its analyte on a solid surface through an enzyme-linked reagent.)

Series [3] can be described thus: Fluorescence properties of the cycloaddition products. The series is classed as physicochemical.
The nature of series [4]: Intramolecular DAR in DMSO/PBS (7.4) at 37° C., time to completion. Type of series: physicochemical. The protocol:
A solution of compound 10b in DMSO/PBS (7.4) was incubated at 37° C. for 3 hrs, after which the intramolecular DAR reaction finished. Then the reaction mixture was extracted with ethyl acetate, and the obtained organic layer was dried with anhydrous Na2SO4, filtered and concentrated. Thus obtained pale yellow solid was characterized by ^1H NMR as the intramolecular DAR product. ^1H NMR (400 MHz, CDCl3): δ 9.27 (d, J=7.2 Hz, 1H), 7.88 (d, J=8.0 Hz, 1H), 7.79 (d, J=8.0 Hz, 1H), 7.71 (t, J=7.6 Hz, 1H), 7.61-7.53 (m, 5H), 7.32 (t, J=8.0 Hz, 1H), 7.08 (s, 1H), 7.04 (d, J=7.2 Hz, 1H), 5.37-5.18 (m, 1H), 3.53 (t, J=6.0 Hz, 2H), 3.05 (t, J=6.0 Hz, 2H), 1.32 (d, J=6.8 Hz, 6H).
A solution of compound 10b in DMSO/PBS (7.4) was incubated at 37° C. for 24 hrs, after which the intramolecular DAR reaction was finished. Then the reaction mixture was extracted with ethyl acetate, and the obtained organic layer was dried with anhydrous Na2SO4. Filtered and concentrated, the obtained pale yellow solid was characterized by ^1H NMR as the intramolecular DAR product. ^1H NMR (400 MHz, CDCl3) δ 9.12 (d, J=8.0 Hz, 1H), 7.83 (d, J=8.4 Hz, 1H), 7.73 (d, J=8.4 Hz, 1H), 7.68 (t, J=8.0 Hz, 1H), 7.63-7.54 (m, 3H), 7.36 (d, J=8.0 Hz, 2H), 7.24 (t, J=8.0 Hz, 1H), 6.32 (d, J=8.0 Hz, 1H), 5.29-5.26 (m, 1H), 3.57-3.46 (m, 2H), 3.05-2.94 (m, 2H), 2.12 (s, 3H), 1.33 (d, J=6.8 Hz, 6H). […]

Series [5] can be described thus: CO release kinetics by increase of fluorescence intensity. The series is classed as physicochemical. The method, then: Compound 10a was dissolved indifferent solvents including CH2Cl2 (25° C.), CH3CN (25° C.), DMSO (25° C.), DMSO/PBS (10:1, 25° C.), DMSO/PBS (5:1, 25° C.), and DMSO/PBS (5:1, 37° C.) to give a final concentration of around 100 μM, and CO release was monitored by fluorescence intensity at 450 nm. Each experiment was repeated three times independently. The CO release rate (first order reaction rate) in DCM, CH3CN, DMSO, DMSO/PBS (10:1), DMSO/PBS (5:1), and DMSO/PBS (5:1, 37° C.) were different and their individual rate constant was calculated to be 2.3±0.2, 3.6±0.4, 6.6±0.6, 7.7±0.6, 11.0±1.4 and 22.4±3.2 h^−1, respectively. […] The CO release rate increased along with the polarity of the solvent.

Series [6] can be described thus: Determination of CO release rates (fluorescence or UV absorbance). The note with it: DMSO/PBS (4:1) at 37° C. Type of series: physicochemical. The method, then: For CO prodrugs with naphthalene scaffold, the CO release rate is easily done by monitoring the fluorescence intensity of the cyclized product. For the others, the CO release rate was determined by employing the UV absorbance difference between the prodrugs and the cyclized product.

The subject of series [7] is RAW 264.7 cells. The series is described as follows: Cytotoxicity of CO prodrugs and inactive products (MTT). The series is classed as cell-based, mouse. The note with it: 24 h incubation. The method, then: The toxicity of compound 10b and product of compound 10b (44b) after CO release were tested on RAW 264.7 cells, which is a mouse macrophage cell line used for anti-inflammation test. Different concentrations of 10b and 44b product were added into the cell culture media (Dulbecco's Modified Eagle's Medium supplemented with 10% heat inactivated fetal bovine serum and 1% penicillin-streptomycin). All samples with different concentrations of 10b or 44b product contained 1% DMSO in the cell culture media. RAW 264.7 cells were seeded in 96-well plate one day before the experiment. The cells were then incubated with the compound for 24 hours at 37° C. with 5% CO2. The cell viability was tested by MTT assay. Basically, after 24 hours of incubation, 0.5 mg/mL MTT (3-(4,5-Dimethylthiazol-2-yl)-2,5-Diphenyltetrazolium Bromide) was added into the cell culture and incubated for 4 hours. Thereafter, the supernatant was removed and 100 μL of DMSO were added into the wells containing cells. After shaking gently for 3 minutes, absorbance at 570 nm was read by plate reader.
(§1) 10a-10d, and 100 with different release rates were chosen to test their inhibitory effect against lipopolysaccharide (LPS) induced TNF-α secretion in RAW 264.7 cells. […] This was followed by the treatment of LPS for another 1 h. Then the cell culture supernatants were subjected to ELISA assay for TNF-α levels.

Series [8] is described as follows: CO release kinetics by increase of fluorescence intensity. The series is classed as physicochemical. The note with it: PBS with 1% DMSO; 1% of DMSO in PBS (pH = 7.4); read-out: t1/2 half-life for CO release (converted).
For series [9], the system named is TNF-α. The series is described as follows: TNF-α ELISA in LPS treated RAW 264.7 cells pre-treated with CO prodrug. Type of series: cell-based, mouse. As to conditions: pre-treated 5 h, then LPS 1 h. The protocol: RAW 264.7 cells were seeded in the 48-well plate one day before the experiment.
LPS was used to initialize the inflammatory response in RAW 264.7 cells and trigger the expression of cytokines. RAW 264.7 cells were pre-treated with different concentrations of 10b or 44b product for 5 hours. Thereafter, […] LPS was added with into the cell culture media. For TNF-α test, the cell culture supernatant was collected after 1 hour of LPS treatment. For IL-6 test, the cell culture supernatant was collected after 4 hours of LPS treatment. Cell culture without LPS treatment was used as control.
as §1

Series [10] relates to pulmonary arterial hypertension. The note with it: breathing CO gas (e.g., 150 ppm), after 16 weeks; cited from earlier work.
The mark [11] stands for this setting: of the cycloaddition products 44a-44f and 100a.

Where two headings read alike, the source gives them in different places.

`O=C(NCCOCCOCCOC1OC(CO)C(O)C(O)C1O)OCC1[C@H]2CCC#CCC[C@@H]12` (some centres unmarked) [BCN-M]: the cytotoxicity result in series [1] (24 h of treatment, within 1 mM) is recorded as “none of the compounds led to any cytotoxicity”. Moreover, in [2] (co-treatment with TPCPD-M and BCN-M 1 mM+1 mM, 24 h), the “decrease of the LPS-induced accumulation of TNF-α” value was 50%. Also, the “inhibition of the LPS-induced accumulation of TNF-α” value in series [2] (tested separately) is “do not lead to any inhibition”.
On to `NCC(=O)O.[C-]#[O+].[C-]#[O+].[C-]#[O+].[Cl][Ru]` [CORM3, reference compound], for which the “decrease in cell viability” value in [1] (1 mM) is recorded as 30%.
In the case of `C#CCN(C)C(=O)C1=C2C(=C(c3ccccc3)C1=O)c1cccc3cccc2c13` [Compound 10a], the λem emission wavelength in series [3] (setting [11]) is 450 nm. The λex excitation wavelength in series [3] (setting [11]) was 371 nm. In series [3] (of the cycloaddition products 44a-44f and 100a in MeOH, quinine sulfate as the standard), this compound had a Φ quantum yield of 0.21. Besides, in [4], the “incubation time after which the intramolecular DAR reaction was finished” value came to 5 min. For the same compound, the “k CO release rate” value in series [5] (CH2Cl2 at room temperature (25° C.)) was 2.3 ± 0.2 h⁻¹; in series [5] (DMSO/PBS (pH = 7.4) 5:1 at 37° C.), 22.4 ± 3.2 h⁻¹. For the same compound, the “CO release rate constant (first order)” value in series [5] (CH3CN (25° C.)) is 3.6 ± 0.4 h⁻¹; in series [5] (DMSO (25° C.)), 6.6 ± 0.6 h⁻¹; in series [5] (DMSO/PBS (5:1, 25° C.)) it was 11.0 ± 1.4 h⁻¹; in series [5] (DMSO/PBS (10:1, 25° C.)) it was 7.7 ± 0.6 h⁻¹.
With `C#CCOc1ccccc1C1=C2C(=C(C(=O)N3CCOCC3)C1=O)c1cccc3cccc2c13` [Compound 51], the “incubation time after which the intramolecular DAR reaction was finished” value in series [4] was 960 min. For the same compound, the “K CO release” value in [6] amounted to 0.31 ± 0.003 h⁻¹.
Regarding `C#CCCN(CCOC1OC(CO)C(O)C(O)C1O)C(=O)C1=C2C(=C(c3ccccc3)C1=O)c1cccc3cccc2c13` (centres unmarked) [Compound 100], the “effect on cell viability” value in series [7] is “did not show any effect on cell viability at up to 50 μM”. Also, the half-life is 126 min in series [5] (DMSO/PBS 5:1, DMSO/PBS (pH = 7.4) 5:1 at 37° C., read-out: t1/2 half-life for CO release (converted)) and 10.8 min in [8]. Besides, the “K CO release” value in series [6] worked out at 0.33 ± 0.01 h⁻¹.
For `O=C1c2c(cc(-c3ccccc3)c3c2-c2cccc4cccc-3c24)CCN1CCOC1OC(CO)C(O)C(O)C1O` (centres unmarked) [Compound 100a], the “effect on cell viability” value in series [7] is “did not show any effect on cell viability at up to 50 μM”. In addition, the “LPS-induced TNF-α expression / secretion” value in series [9] is given as “dose-dependently inhibited”.
carbon monoxide [CO]: the “decrease of pulmonary vascular resistance compared to the pre-therapy value” in [10] is 20%.

These data come from patent US11420994B2, “Carbon-monoxide-releasing molecules and therapeutic applications thereof” (GEORGIA STATE UNIVERSITY RESEARCH FOUNDATION, INC., priority 2016, dated 2022).
